Several values for one entry are separate records, joined by “and”; a condition that tells them apart may be missing. Equal entries are not always repeated.
Key:
[1] = test system: experimental rat hypercholesterolemia model; assay: Lipid spectrum of blood in experimental rat hypercholesterolemia model; type: in vivo, male rats of Wistar line
Method: The animals used were male rats of Wistar line. […] The proposed model using rats as the experimental animals is a reproducible standard model for evaluation of hypocholesterolemic effect.
(§1) Evaluation of hypocholesterolemic efficacy and safety of pharmaceutical combination was performed in vivo in experimental rat hypercholesterolemia model.
(§2) For 90 days the studied animals received hypercholesterol diet for pathology induction. The diet included Cholesterol+Cholic acid+Overheated fats (deep fat).
For 90 days the animals received the said ration ad libitum (30 g feed per animal). Development of hypercholesterolemia in animals was evaluated based on changes in lipid spectrum parameters on Day 30 of the study.
(§3) Drugs were introduced intragastrically with an esophageal bougie daily on Day 31-90 of the study at the same time of day.
Biochemical parameters and activity of blood serum enzymes (total cholesterol (CHS), LDL-CHS, HDL-CHS, triglycerides.
1.0-1.84 ml blood samples for the study of biochemical parameters were taken from tail vein of rats. Blood samples were taken from the animals after 14-15-hour's fasting at same time of day (9.00-11.00). For biochemical parameters tests a Biochemical Analyzer A-25 (Biosystems, Spain) was used. […]

[2] = Mass coefficients of organs (pancreas, liver, kidneys) of rats; type: in vivo, male rats of Wistar line; settings: M ± m; for weight coefficient, Kidneys / weight coefficient, Liver: in %
Method: To calculate mass coefficients the pancreas, liver and kidneys of the animals were extracted. The organs were weighed and the mass coefficients were calculated by the following formula:
Mass coefficient=(organ weight/animal body weight)×100%

[3] = test system: experimental rat hypercholesterolemia model; assay: Biochemical blood analysis (drug toxicity parameters) in rat hypercholesterolemia model; type: in vivo, male rats of Wistar line
Method: as §1, §2, §3
Biochemical parameters and activity of serum enzymes (aspartate- and alanine aminotransferase, creatine phosphokinase, urea, serum amylase, total bilirubin, direct bilirubin, indirect bilirubin, serum glucose, cations K^+, Na^+).
1.0-1.84 ml blood samples for the study of biochemical parameters were taken from tail vein of rats. Blood samples were taken from the animals after 14-15-hour's fasting at same time of day (9.00-11.00). For biochemical parameters tests a Biochemical Analyzer A-25 (Biosystems, Spain) was used.
Vol. 4. pp. 1794-1798; Pearlman F C and Lee R T Y. Clin Chem 1974, 20, 447-453; Zoppi F et al, Peracino A., Fenili D., Marcovina S. and Ramella C. Giorn It Chim Cl. […] C. et al Clin Chem. 1974. Vol. 20. pp. 470-475; and in Meiattini F., et al, Clin Chem. 1978. Vol. 24. pp. 2161-2165 (total cholesterol); Warnick G R et al. Clin Chem 2001, 47, 1579-96 (HDL/LDL); Bucolo G and David H. Clin Chem. 1973.-Vol. 19. pp. 476-482; and in Fossati P. and, Prencipe L., Clin Chem. 1982. Vol. 28. pp. 2077-2080 (triglycerides); Trinder P. Ann Clin Biochem. 1969. Vol. 6. pp. 24-27).

[4] = Stability of statin/glycyrrhizic acid molecular complexes by content of glycyrrhizic acid; type: physicochemical; settings: interval between testing points 7 months; European Pharmacopoeia 7.0 methodology
Method: Stability of these complexes was determined on the basis of quantitative content of glycyrrhizic acid (in percentage form). The interval between the testing points was 7 months. The testing methodology was taken from European Pharmacopoeia 7.0. […] This decline is related both to the conditions of synthesis (maximum decline observed for liquid-phase synthesis) and to the properties of the active ingredient itself.

[5] = Dynamics of body weight of rabbits (Schemes A and B); type: in vivo, male rabbits of Californian breed; settings: for Body weight: Scheme A, M ± SEM
Source text: The animals used in this experiment were involved reproductive male rabbits of Californian breed. 144 rabbits were used. The weight of the animals at the beginning of the trial ranged from 2.5 to 3 kg; the animals were 8 weeks old. Before the study the laboratory animals were contained for 27 and for 37 days in the separate coops for adaptation. During this period, clinical condition of animals was controlled every day by visual inspection. The criteria of the inclusion of animals in the experiment were health and body weight.
The introduction of drugs under two schemes was used to determine the mechanism of action of the studied drugs and the impact on the different stages of atherosclerosis.
Cholesterol administered daily in an oil solution at 0.3 g/kg of animal body weight, one time, 4 hours after drug administration. Cholesterol was dissolved in hot sunflower oil and administered to the animals through noninvasive probe into the stomach. The duration of administration amounted cholesterol from 1 to 90 days in subgroup A and 1 to 120 days in subgroup B. 2. After 30 days from the initiation of administration of cholesterol vitamin D3 (cholecalciferol) in a dose of 0.256 ml/kg was added to the diet of animals to enhance aortic lipidosis. Cholecalciferol was administered intragastrically via a probe from 31 till 60 days (Scheme A and B). […] In order to gain atherosclerotic lesions in aorta and atherosclerosis induction time reduction the animals were administered a dose of epinephrineequal to 0.04 mg/kg intravenously since 31 till 60 every five days (Scheme A and B).
Animal body weight was measured in accordance with standard procedures prior to the study, then—weekly (for calculating the volume of administration of the test compound and the reference drug) and immediately before euthanasia (on days 60 and 120)—to calculate the weight gain.
The administration was carried out intragastrically in accordance with standard procedures using atraumatic probe according to two treatment regimens every day at the same time.

[6] = Mass coefficients of liver and pancreas of rabbits; type: in vivo, male rabbits of Californian breed; settings: for pancreatic mass coefficients relative to the control group: rosuvastatin 40 mg, AGA 100 mg
[7] = Day 30 of treatment (Day 60 of study), dose 90 mg
[8] = Day 60 of treatment (Day 90 of study), dose 90 mg
[9] = AV + GA 10 + 90 mg, AV 20 mg, GA 90 mg
[10] = FV + GA 80 + 90 mg, FV 80 mg, GA 90 mg
[11] = blood, Day 60 of the treatment (Day 90 of the study), AV + GA 10 + 90 mg, AV 10 mg, GA 90 mg
[12] = blood, Day 60 of the treatment (Day 90 of the study), FV + GA 80 + 90 mg, FV 80 mg, GA 90 mg
[13] = Day 30 of treatment (Day 60 of study), dose 10 mg
[14] = Day 30 of treatment (Day 60 of study), dose 20 mg
[15] = Day 60 of treatment (Day 90 of study), dose 10 mg
[16] = Day 60 of treatment (Day 90 of study), dose 20 mg
[17] = RV + AGA 10 + 108 mg, RV 10 mg, AGA 108 mg
[18] = blood, Day 60 of the treatment (Day 90 of the study), RV + AGA 10 + 108 mg, RV 10 mg, AGA 108 mg

SMILES: CC1(C)[C@@H](O[C@H]2O[C@H](C(=O)O)[C@@H](O)[C@H](O)[C@H]2O[C@@H]2O[C@H](C(=O)O)[C@@H](O)[C@H](O)[C@H]2O)CC[C@]2(C)[C@H]3C(=O)C=C4[C@@H]5C[C@@](C)(C(=O)O)CC[C@]5(C)CC[C@@]4(C)[C@]3(C)CC[C@@H]12 [GA, (3β,18α)-30-hydroxy-11,30-dioxoolean-12-en-3-yl 2-O-β-D-glucopyranuronosyl-β-D-glucopyranosiduronic acid]
- HDL CHS [1, 7]: 0.63 ± 0.04 mmol/L
- LDL CHS [1, 7]: 4.00 ± 0.3 mmol/L
- TG [1, 7]: 1.6 ± 0.10 mmol/L
- Total CHS [1, 7]: 5.2 ± 0.5 mmol/L
- HDL CHS [1, 8]: 0.73 ± 0.04 mmol/L
- LDL CHS [1, 8]: 3.90 ± 0.3 mmol/L
- TG [1, 8]: 1.6 ± 0.10 mmol/L
- Total CHS [1, 8]: 4.5 ± 0.5 mmol/L
- weight coefficient, Pancreas [2, 9]: 0.20 ± 0.01^2
- weight coefficient, Kidneys [2, 9]: 0.80 ± 0.01
- weight coefficient, Liver [2, 9]: 4.41 ± 0.09
- weight coefficient, Pancreas [2, 10]: 0.23 ± 0.01^2
- weight coefficient, Kidneys [2, 10]: 0.80 ± 0.03
- weight coefficient, Liver [2, 10]: 4.42 ± 0.09
- ALT [3, 7]: 100 U/l
- AST [3, 7]: 125 U/l and 132 U/l
- Amylase [3, 7]: 618 U/l
- Bilirubin direct [3, 7]: 2.2 mg/dL
- Bilirubin indirect [3, 7]: 1.4 mg/dL
- Bilirubin total [3, 7]: 4.5 mg/dL
- CPK [3, 7]: 320 U/l
- Glucose [3, 7]: 111 mg/dL
- Potassium [3, 7]: 2.2 mM
- Sodium [3, 7]: 135 mmol
- Urea [3, 7]: 5.7 mmol/L
- ALT [3, 11]: 103 U/l
- AST [3, 11]: 115 U/l
- Amylase [3, 11]: 600 U/l
- Bilirubin direct [3, 11]: 2.2 mg/dL
- Bilirubin indirect [3, 11]: 1.8 mg/dL
- Bilirubin total [3, 11]: 4.3 mg/dL
- CPK [3, 11]: 233 U/l
- Glucose [3, 11]: 116 mg/dL
- Potassium [3, 11]: 3.1 mM
- Sodium [3, 11]: 123 mmol
- Urea [3, 11]: 5.0 mmol/L
- ALT [3, 12]: 103 U/l
- AST [3, 12]: 121 U/l
- Amylase [3, 12]: 600 U/l
- Bilirubin direct [3, 12]: 2.2 mg/dL
- Bilirubin indirect [3, 12]: 1.8 mg/dL
- Bilirubin total [3, 12]: 4.3 mg/dL
- CPK [3, 12]: 233 U/l
- Glucose [3, 12]: 116 mg/dL
- Potassium [3, 12]: 3.1 mM
- Sodium [3, 12]: 123 mmol
- Urea [3, 12]: 5.0 mmol/L
- stability with regard to time (content of glycyrrhizic acid) [4]: unstable

SMILES: CC(C)c1nc(N(C)S(C)(=O)=O)nc(-c2ccc(F)cc2)c1/C=C/[C@@H](O)C[C@@H](O)CC(=O)O [RV, (3R,5S,6E)-7-[4-(4-fluorophenyl)-2-(N-methylmethanesulfonamido)-6-(propan-2-yl)pyrimidin-5-yl]-3,5-dihydroxyhept-6-enoic acid]
- HDL CHS [1, 13]: 0.81 ± 0.05 mmol/L
- LDL CHS [1, 13]: 3.23 ± 0.21 mmol/L
- TG [1, 13]: 1.21 ± 0.10 mmol/L
- Total CHS [1, 13]: 4.0 ± 0.2 mmol/L
- HDL CHS [1, 14]: 0.9 ± 0.03 mmol/L
- LDL CHS [1, 14]: 3.00 ± 0.10 mmol/L
- TG [1, 14]: 1.27 ± 0.03 mmol/L
- Total CHS [1, 14]: 3.6 ± 0.1 mmol/L
- HDL CHS [1, 15]: 0.81 ± 0.05 mmol/L
- LDL CHS [1, 15]: 2.90 ± 0.21 mmol/L
- TG [1, 15]: 1.21 ± 0.10 mmol/L
- Total CHS [1, 15]: 3.7 ± 0.2 mmol/L
- HDL CHS [1, 16]: 0.91 ± 0.03 mmol/L
- LDL CHS [1, 16]: 2.72 ± 0.20 mmol/L
- TG [1, 16]: 1.29 ± 0.03 mmol/L
- Total CHS [1, 16]: 3.3 ± 0.1 mmol/L
- weight coefficient, Pancreas [2, 17]: 0.35 ± 0.04
- weight coefficient, Kidneys [2, 17]: 0.75 ± 0.03
- weight coefficient, Liver [2, 17]: 4.42 ± 0.11
- ALT [3, 13]: 179 U/l
- AST [3, 13]: 182 U/l
- Amylase [3, 13]: 641 U/l
- Bilirubin direct [3, 13]: 2.7 mg/dL
- Bilirubin indirect [3, 13]: 2.1 mg/dL
- Bilirubin total [3, 13]: 4.6 mg/dL
- CPK [3, 13]: 702 U/l
- Glucose [3, 13]: 158 mg/dL
- Potassium [3, 13]: 4.3 mM
- Sodium [3, 13]: 128 mmol
- Urea [3, 13]: 7.2 mmol/L
- ALT [3, 18]: 139 U/l
- AST [3, 18]: 190 U/l
- Amylase [3, 18]: 584 U/l
- Bilirubin direct [3, 18]: 2.9 mg/dL
- Bilirubin indirect [3, 18]: 1.7 mg/dL
- Bilirubin total [3, 18]: 4.8 mg/dL
- CPK [3, 18]: 597 U/l
- Glucose [3, 18]: 130 mg/dL
- Potassium [3, 18]: 2.2 mM
- Sodium [3, 18]: 130 mmol
- Urea [3, 18]: 6.4 mmol/L
- Body weight ([5]; Day 0 (Before the study), dose group 20 mg): 2874 ± 165 g
- Body weight ([5]; Day 0 (Before the study), dose group 40 mg): 2787 ± 141 g
- Body weight ([5]; Day 28 (in the setting of pathology without treatment), dose group 20 mg): 3350 ± 157 g
- Body weight ([5]; Day 28 (in the setting of pathology without treatment), dose group 40 mg): 3428 ± 146 g
- Body weight ([5]; Day 90 (in the setting of pathology with treatment), dose 20 mg): 4340 ± 53 g
- Body weight ([5]; Day 90 (in the setting of pathology with treatment), dose 40 mg): 4348 ± 66 g
- Body weight, M ± SEM, Day 120 (in the setting of pathology with treatment) ([5]; Scheme B, dose 20 mg): 4699 ± 131^1 g
- Body weight, M ± SEM, Day 0 (Before the study) ([5]; Scheme B, dose 20 mg, baseline): 2665 ± 85 g
- Body weight, M ± SEM, Day 56 (in the setting of pathology without treatment) ([5]; Scheme B, dose 20 mg, before treatment): 3479 ± 106 g
- Mass ratios, M ± SEM, Liver ([6]; Scheme A, dose 20 mg): 3.8 ± 0.2
- Mass ratios, M ± SEM, Pancreas ([6]; Scheme A, dose 20 mg): 0.07 ± 0.006
- Mass ratios, M ± SEM, Liver ([6]; Scheme A, dose 40 mg): 4.0 ± 0.1
- Mass ratios, M ± SEM, Pancreas ([6]; Scheme A, dose 40 mg): 0.09 ± 0.004
- pancreatic mass coefficients relative to the control group ([6]; Scheme A): significant increase
- Mass ratios, M ± SEM, Liver ([6]; Scheme B, dose 20 mg): 3.8 ± 0.2
- Mass ratios, M ± SEM, Pancreas ([6]; Scheme B, dose 20 mg): 0.09 ± 0.004^12
- pancreatic mass coefficients relative to the control group ([6]; Scheme B): statistically significant increase

Source: US20170304336A1, “COMBINATION” (priority 2014, published 2017)
